Assay results published in ChEMBL document CHEMBL5390198, “Scaffold hopping of N-benzyl-3,4,5-trimethoxyaniline: 5,6,7-Trimethoxyflavan derivatives as novel potential anticancer agents modulating hippo signaling pathway” (2023).
Activity calls are given as the source filed them. No cut-off for these calls is given here.

Key:
COLO 205 = assay: Growth inhibition of human COLO 205 cells measured after 24 to 72 hrs by SRB method; type: functional; details: time 24-72 hrs
KM12 = assay: Growth inhibition of human KM12 cells measured after 24 to 72 hrs by SRB method; type: functional; details: time 24-72 hrs
A549 [1] = assay: Induction of apoptosis in human A549 cells assessed as decrease in caspase-3 expression measured after 48 hrs by Western blot analysis; type: functional, cell-based; details: dose <= 4.0 µM
A549 [2] = assay: Induction of apoptosis in human A549 cells assessed as decrease in PARP expression measured after 48 hrs by Western blot analysis; type: functional, cell-based; details: dose <= 4.0 µM
A549 [3] = assay: Induction of apoptosis in human A549 cells assessed as increase necrotic cell death at 1 to 4 uM measured after 48 hrs by annexin V-FITC/PI staining based flow cytometry analysis; type: functional; details: dose 1-4 µM
A549 [4] = assay: Induction of apoptosis in human A549 cells assessed as increase in apoptotic cells measured after 48 hrs by annexin V-FITC/PI staining based flow cytometry analysis; type: functional, cell-based; details: dose 1-4 µM
A549 [5] = assay: Induction of apoptosis in human A549 cells assessed as increase in cleaved PARP expression measured after 48 hrs by Western blot analysis; type: functional, cell-based; details: dose <= 4.0 µM
A549 [6] = assay: cells; type: functional; details: Homo sapiens, time 24-72 hrs
Description: Antiproliferative activity against human A549 cells assessed as inhibition of cell growth at 10 uM measured after 24 to 72 hrs by SRB method relative to control

EKVX = assay: cells; type: functional; details: Homo sapiens, time 24-72 hrs
Description: Antiproliferative activity against human EKVX cells assessed as inhibition of cell growth at 10 uM measured after 24 to 72 hrs by SRB method relative to control

HOP-62 = assay: Antiproliferative activity against human HOP-62 cells assessed as inhibition of cell growth at 10 uM measured after 24 to 72 hrs by SRB method relative to control; type: functional; details: time 24-72 hrs
HOP-92 = assay: cells; type: functional; details: Homo sapiens, time 24-72 hrs
Description: Antiproliferative activity against human HOP-92 cells assessed as inhibition of cell growth at 10 uM measured after 24 to 72 hrs by SRB method relative to control

NCI-H226 = assay: cells; type: functional; details: Homo sapiens, time 24-72 hrs
Description: Antiproliferative activity against human NCI-H226 cells assessed as inhibition of cell growth at 10 uM measured after 24 to 72 hrs by SRB method relative to control

NCI-H23 = assay: cells; type: functional; details: Homo sapiens, time 24-72 hrs
Description: Antiproliferative activity against human NCI-H23 cells assessed as inhibition of cell growth at 10 uM measured after 24 to 72 hrs by SRB method relative to control

NCI-H322M = assay: Antiproliferative activity against human NCI-H322M cells assessed as inhibition of cell growth at 10 uM measured after 24 to 72 hrs by SRB method relative to control; type: functional; details: time 24-72 hrs
NCI-H460 = assay: cells; type: functional; details: Homo sapiens, time 24-72 hrs
Description: Antiproliferative activity against human NCI-H460 cells assessed as inhibition of cell growth at 10 uM measured after 24 to 72 hrs by SRB method relative to control

NCI-H522 = assay: Antiproliferative activity against human NCI-H522 cells assessed as inhibition of cell growth at 10 uM measured after 24 to 72 hrs by SRB method relative to control; type: functional; details: time 24-72 hrs
MCF7 = assay: Antiproliferative activity against human MCF7 cells assessed as inhibition of cell growth at 10 uM measured after 24 to 72 hrs by SRB method relative to control; type: functional; details: time 24-72 hrs
MDA-MB-231 = assay: Antiproliferative activity against human MDA-MB-231 cells assessed as inhibition of cell growth at 10 uM measured after 24 to 72 hrs by SRB method relative to control; type: functional; details: time 24-72 hrs
Hs-578T = assay: Antiproliferative activity against human Hs-578T cells assessed as inhibition of cell growth at 10 uM measured after 24 to 72 hrs by SRB method relative to control; type: functional; details: time 24-72 hrs
BT-549 = assay: Antiproliferative activity against human BT-549 cells assessed as inhibition of cell growth at 10 uM measured after 24 to 72 hrs by SRB method relative to control; type: functional; details: time 24-72 hrs
T47D = assay: Antiproliferative activity against human T47D cells assessed as inhibition of cell growth at 10 uM measured after 24 to 72 hrs by SRB method relative to control; type: functional; details: time 24-72 hrs
MDA-MB-468 = assay: Antiproliferative activity against human MDA-MB-468 cells assessed as inhibition of cell growth at 10 uM measured after 24 to 72 hrs by SRB method relative to control; type: functional; details: time 24-72 hrs
CCRF-CEM = assay: Antiproliferative activity against human CCRF-CEM cells assessed as inhibition of cell growth at 10 uM measured after 24 to 72 hrs by SRB method relative to control; type: functional; details: time 24-72 hrs
HL-60 = assay: Antiproliferative activity against human HL-60 cells assessed as inhibition of cell growth at 10 uM measured after 24 to 72 hrs by SRB method relative to control; type: functional; details: time 24-72 hrs
K562 = assay: Antiproliferative activity against human K562 cells assessed as inhibition of cell growth at 10 uM measured after 24 to 72 hrs by SRB method relative to control; type: functional; details: time 24-72 hrs
MOLT-4 = assay: Antiproliferative activity against human MOLT-4 cells assessed as inhibition of cell growth at 10 uM measured after 24 to 72 hrs by SRB method relative to control; type: functional; details: time 24-72 hrs
RPMI-8226 = assay: Antiproliferative activity against human RPMI-8226 cells assessed as inhibition of cell growth at 10 uM measured after 24 to 72 hrs by SRB method relative to control; type: functional; details: time 24-72 hrs
SR = assay: Antiproliferative activity against human SR cells assessed as inhibition of cell growth at 10 uM by measured after 24 to 72 hrs SRB method relative to control; type: functional; details: time 24-72 hrs
A549 [7] = assay: Induction of apoptosis in human A549 cells assessed as increase in cleaved caspase-3 expression measured after 48 hrs by Western blot analysis; type: functional, cell-based; details: dose <= 4.0 µM
A549 [8] = assay: Induction of apoptosis in human A549 cells assessed as increase in cleaved caspase-7 expression measured after 48 hrs by Western blot analysis; type: functional, cell-based; details: dose <= 4.0 µM
A549 [9] = assay: Induction of cell cycle arrest in human A549 cells assessed as increase in number of cells in G2/M phase by flow cytometry analysis; type: functional, cell-based; details: dose 1-4 µM
A549 [10] = assay: Induction of cell cycle arrest in human A549 cells assessed as decrease in number of cells in G0/G1 phase at 1 to 4 uM by flow cytometry analysis; type: functional, cell-based; details: dose 1-4 µM
A549 [11] = assay: Induction of cell cycle arrest in human A549 cells assessed as decrease in cyclin A1 expression measured after 24 hrs by Western blot analysis; type: functional, cell-based; details: dose 1-4 µM
A549 [12] = assay: Induction of cell cycle arrest in human A549 cells assessed as decrease in cyclin B1 expression measured after 24 hrs by Western blot analysis; type: functional, cell-based; details: dose 1-4 µM
A549 [13] = assay: Induction of cell cycle arrest in human A549 cells assessed as decrease in cyclin H expression measured after 24 hrs by Western blot analysis; type: functional, cell-based; details: dose 1-4 µM
A549 [14] = assay: Induction of cell cycle arrest in human A549 cells assessed as decrease in Cdc25c expression measured after 24 hrs by Western blot analysis; type: functional, cell-based; details: dose 1-4 µM
A549 [15] = assay: Induction of cell cycle arrest in human A549 cells assessed as increase in p53 expression measured after 24 hrs by Western blot analysis; type: functional, cell-based; details: dose 1-4 µM
A549 [16] = assay: Activation of Hippo signaling pathway in human A549 cells assessed as decrease in YAP incubated for 24 hrs by Western blotting analysis; type: cell-based; details: filed as activator, dose <= 4.0 µM
A549 [17] = assay: Activation of Hippo signaling pathway in human A549 cells assessed as increase in […] at upto 4 uM incubated for 24 hrs by Western blotting analysis; type: cell-based; details: filed as activator
A549 [18] = assay: Activation of Hippo signaling pathway in human A549 cells assessed as increase in p-MOB1/MOB1 ratio at upto 4 uM incubated for 24 hrs by Western blotting analysis; type: cell-based; details: filed as activator
A549 [19] = assay: Inhibition of PI3K/AKT/mTOR signalling pathway in human A549 cells assessed as inhibition of P70S6K phosphorylation measured after 24 hrs by Western blot analysis; type: cell-based; details: dose <= 4.0 µM
SF-268 = assay: Growth inhibition of human SF-268 cells measured after 24 to 72 hrs by SRB method; type: functional; details: time 24-72 hrs
SF-295 = assay: Growth inhibition of human SF-295 cells measured after 24 to 72 hrs by SRB method; type: functional; details: time 24-72 hrs
MDA-MB-435 = assay: Growth inhibition of human MDA-MB-435 cells measured after 24 to 72 hrs by SRB method; type: functional; details: time 24-72 hrs
SK-MEL-28 = assay: Growth inhibition of human SK-MEL-28 cells measured after 24 to 72 hrs by SRB method; type: functional; details: time 24-72 hrs
ACHN = assay: Growth inhibition of human ACHN cells measured after 24 to 72 hrs by SRB method; type: functional; details: time 24-72 hrs
A498 = assay: Growth inhibition of human A498 cells measured after 24 to 72 hrs by SRB method; type: functional; details: time 24-72 hrs
SK-OV-3 = assay: Growth inhibition of human SK-OV-3 cells measured after 24 to 72 hrs by SRB method; type: functional; details: pooled result: one value given for 7 cell lines, strains, targets or settings, time 24-72 hrs
PC-3 [20] = assay: Growth inhibition of human PC-3 cells measured after 24 to 72 hrs by SRB method; type: functional; details: time 24-72 hrs
DU-145 [21] = assay: Growth inhibition of human DU-145 cells measured after 24 to 72 hrs by SRB method; type: functional; details: time 24-72 hrs
PC-3 [22] = assay: Potency index, ratio of enzalutamide GI50 to test compound GI50 for growth inhibition of human PC-3 cells measured after 24 to 72 hrs by SRB method; type: functional; details: time 24-72 hrs
DU-145 [23] = assay: Potency index, ratio of enzalutamide GI50 to test compound GI50 for growth inhibition of human DU-145 cells measured after 24 to 72 hrs by SRB method; type: functional; details: time 24-72 hrs

In the case of `COc1ccc(NC(=O)c2cccc(C3CCc4c(cc(OC)c(OC)c4OC)O3)c2)cc1` (configuration not stated), the GI50 (COLO 205) is reported as 2400 nM, the GI50 (KM12) is reported as 3.47 µM and the Activity (A549 [1]) is reported as “Dose-Dependent Effect”. For the same molecule, the Activity (A549 [2]) was “Dose-Dependent Effect”, the Activity (A549 [3]) was “inactive” and the Activity (A549 [4]) was “Dose-Dependent Effect”. The Activity (A549 [5]) was “Dose-Dependent Effect”, the inhibition at 10 µM (A549 [6]) was 67.9% and the inhibition at 10 µM (EKVX) was 53%. The inhibition at 10 µM (HOP-62) was 69.3%, the inhibition at 10 µM (HOP-92) was 102% and the inhibition at 10 µM (NCI-H226) was 52.5%. The inhibition at 10 µM (NCI-H23) was 47.9%, the inhibition at 10 µM (NCI-H322M) was 46.1% and the inhibition at 10 µM (NCI-H460) was 81.8%. The inhibition at 10 µM (NCI-H522) was 78.2%, the inhibition at 10 µM (MCF7) was greater than 60% and the inhibition at 10 µM (MDA-MB-231) was greater than 60%. The inhibition at 10 µM (Hs-578T) was greater than 60%, the inhibition at 10 µM (BT-549) was greater than 60% and the inhibition at 10 µM (T47D) was greater than 60%. For the same molecule, the inhibition at 10 µM (MDA-MB-468) was greater than 60%, the inhibition at 10 µM (CCRF-CEM) was greater than 60% and the inhibition at 10 µM (HL-60) was greater than 60%. For the same molecule, the inhibition at 10 µM (K562) was greater than 60%, the inhibition at 10 µM (MOLT-4) was greater than 60% and the inhibition at 10 µM (RPMI-8226) was greater than 60%. The inhibition at 10 µM (SR) was greater than 60%, the Activity (A549 [7]) was “Dose-Dependent Effect” and the Activity (A549 [8]) was “Dose-Dependent Effect”. The Activity (A549 [9]) was “Dose-Dependent Effect”, the Activity (A549 [10]) was “Active” and the Activity (A549 [11]) was “Dose-Dependent Effect”. For the same molecule, the Activity (A549 [12]) was “Dose-Dependent Effect”, the Activity (A549 [13]) was “Dose-Dependent Effect” and the Activity (A549 [14]) was “Dose-Dependent Effect”. The Activity (A549 [15]) was “Dose-Dependent Effect”, the Activity (A549 [16]) was “Dose-Dependent Effect” and the Activity (A549 [17]) was “Active”. For the same molecule, the Activity (A549 [18]) was “Active”, the inhibition (A549 [19]) was “Dose-Dependent Effect” and the GI50 (SF-268) was 5.13 µM. It also gave a GI50 (SF-295) of 2510 nM, a GI50 (MDA-MB-435) of 520 nM and a GI50 (SK-MEL-28) of 4.07 µM. For the same molecule, the GI50 (ACHN) was 4.27 µM, the GI50 (A498) was 1380 nM and the GI50 (SK-OV-3) was 2820 nM. The GI50 (PC-3 [20]) was 1580 nM, the GI50 (DU-145 [21]) was 2950 nM and the “fold change (FC)” value (PC-3 [22]) was 12. For the same molecule, the “fold change (FC)” value (DU-145 [23]) was 12.
